# No end group written: not given here.
# Tests used:
# MgF-actin [1] = target: T1, MgF-actin (Oryctolagus cuniculus, UniProt P68135); assay: Extent of F-actin bundling by low speed centrifugation; type: biochemical, rabbit
# T1 construct: MgF-actin was polymerized from CaATP-G-actin by 30 min incubation with 2 mM MgCl2 at 22 °C; tissue Pel-Freez Biologicals (Rogers, AR) (acetone powder); host or cells: rabbit back and leg skeletal muscle
# Experimental: CaATP-G-actin was stored in a buffer containing 5 mM TrisHCl, 0.2 mM CaCl2, 0.2 mM ATP, 0.5 mM β-mercaptoethanol, pH 8.0 (CaATP-G-buffer). MgF-actin was polymerized from CaATP-G-actin by 30 min incubation with 2 mM MgCl2 at 22 °C. MgF-actin was diluted for further treatments in MgF-buffer containing 5 mM 3-(N-morpholino) propanesulfonic acid (MOPS), 2 mM MgCl2, 0.2 mM ATP and 0.5 mM DTT, pH 7.4. The concentration of G- and F-actin was determined using the extinction coefficient E^1% 290 = 11.5 cm-^1. (The optical density of actin was measured in the presence of 0.5 M NaOH, which shifts the maximum of absorbance from 280 to 290 nm).
# Extent of actin polymerization and bundling was measured by high speed centrifugation at 129,151 x g for 2 h and by low speed centrifugation at 20,800 x g for 8 min, respectively. The centrifugations were carried out at 4 °C. The supernatants were separated by 12% sodium dodecyl sulfate polyacrylamide electrophoresis (SDS−PAGE) and analyzed by densitometry using the TINA 2.07d software.
# Bundling was carried out at low ionic strength. a and b bundling kinetics of 4 μM F-actin was followed by light scattering change as described in Methods. […] Upper panels quantitative evaluation of bundling, lower panels, representative SDS-PAGE of the supernatants
# Effect of pH on bundling. […]
# MgF-actin [2] = target: T1, MgF-actin; assay: Transglutaminase cross-linking to F-actin; type: binding, rabbit; conditions: 22 °C; for effect of phalloidin on extent of F-actin cross-linking: 4 μM F-actin, 8 μM Fl-peptide, 8 μM phalloidin, 0.3 mg/ml TGase, 30 min
# Text: Lower panels are representative SDS-PAGE-s. […] Lower panel, SDS-PAGE visualized by fluorescence
# Upper panel, quantitative evaluation of SDS-PAGE by densitometry. Lower panel Coomassie blue stained representative SDS-PAGE
# G-actin [3] = assay: Inhibition of TGase cross-linking to G-actin by NaCl, DNase1 and cofilin; type: binding, rabbit; conditions: 6 μM Fl-histatin, 4 μM G-actin; for effect of NaCl on cross-linking to G-actin: 0.3 mg/ml TGase, 1 min
# Experimental: Here we studied the effect of these agents on the cross-link formation between G-actin and histatins. In these experiments NaCl, histatins, TGase were added simultaneously to G-actin and incubated for 1 min only to avoid significant actin polymerization.
# Samples were treated with TGase for 1 min. Upper panel, evaluation of SDS-PAGE. Lower panel, representative SDS-PAGE visualized by Coomassie blue. b Inhibition of cross-linking by DNase1 and cofilin. Samples were treated with TGase for 5 min
# TG-G-actin [4] = assay: Cross-linking to TGase pretreated G-actin (TG-G-actin) vs G-actin; cross-linking site; type: binding, rabbit; conditions: 4.5 μM Fl-histatin; for cross-linked product with TGase pretreated vs untreated G-actin: 4 μM G-actin or TG-G-actin, 0.3 mg/ml TGase, 30 min, 22 °C; for cross-linking site in the D-loop of G-actin: TG-G-actin (Gln41 blocked)
# Experimental: Preparation of TG-G-actin: 108 μM CaATP-G-actin was incubated with 4 mg/ml TGase at 4 °C for 24 h. After cross-linking samples were run on SDS-PAGE and evaluated by densitometry. Upper panel quantitative evaluation of SDS-PAGE by densitometry. Lower panel representative SDS-PAGE visualized by Coomassie blue
# [5] = system: subtilisin / trypsin digested G-actin; assay: Cross-linking to subtilisin or trypsin fragments of G-actin; type: binding, rabbit; conditions: 4 μM G-actin, 6 μM Fl-histatin, 0.3 mg/ml TGase, 30 min, 22 °C; for cross-linking to subtilisin fragments (Asp1-Met47 N-terminal, Gly48-Phe375 C-terminal): 1.5 μg/ml subtilisin; for cross-linking to Tyr69-Arg372 C-terminal tryptic fragment: 20 μg/ml trypsin
# Experimental: Trypsin and subtilisin digestions were stopped by 40 μg/ml STI and 1 mM PMSF, respectively. Samples were run on SDS-PAGE. Left, lanes visualized by Coomassie blue; right, lanes visualized by fluorescence, marked by (*). Legend: (a) actin; (b) trypsin digested actin; (c) trypsin digested actin cross-linked with Fl-histatin-3 or Fl-histatin-5; (d) subtilisin digested actin; (e) subtilisin digested actin cross-linked with Fl-histatin-3 or Fl-histatin-5; nf), actin cross-linked with Fl-histatin-3 or Fl-histatin-5. a Fl-histatin-3-actin fragments cross-linked bands; b Fl-histatin-5-actin fragments cross-linked bands. Lane M, molecular weight marker
# CaATP-G-actin [6] = conditions: 22 °C
# Experimental: The reaction was stopped by addition of 1 mM cysteamine. Samples were subjected to 12% SDS-PAGE, visualized by Coomassie blue or fluorescence and evaluated by densitometry.
# Samples were treated with TGase at 22 °C for 30 and run on SDS-PAGE and evaluated by densitometry as described in Methods.
# Cross-linking with 0.3 mg/ml TGase for 30 min at 22 °C. Upper panel, quantitative evaluation of SDS-PAGE by densitometry.
# [7] = system: CaATP-G-actin (skeletal muscle); assay: Actin polymerization, pyrene-actin fluorescence kinetics; type: biochemical, rabbit; conditions: 4 μM CaATP-G-actin; 8 μM histatin-3, 20 μM histatin-5, 7 μM LL-37; pH 6.5, 7.4 and 8.2; 22 °C
# Experimental: Labeling of Mg-F-actin at Cys-374 with pyrene maleimide was carried out according to Kouyama and Mihashi with some modifications. CaATP-G-actin was filtered through a PD-10 column (GE Healthcare) equilibrated with β-mercaptoethanol-free CaATP-G-buffer. After filtration, G-actin (1 mg/ml) was polymerized by 2 mM MgCl2 and 100 mM KCl at 22 °C for 30 min, and reacted with pyrene maleimide (16 μg/ml) on ice, for 1 h. The reaction was terminated with 1 mM DTT. Labeled F-actin was centrifuged at 129,151 x g for 2 h; the pellet was resuspended in Ca-ATP-G-buffer and depolymerized by dialyzing in this buffer for 36 h at 4 °C with twice changing the buffer. Finally, actin was centrifuged again at 129,151 x g for 2 h. […] The concentration of modified actin was determined by the procedure of Bradford using unmodified actin as a standard. The extent of labeling was determined by using pyrene extinction coefficient E344 nm = 22,000 cm^−1M^−1, was ~100%.
# Actin polymerization was followed by fluorescence increase (at 365 nm excitation and 386 nm emission wavelengths) of pyrene-labeled G-actin [17], which was added to unlabeled G-actin in 10–15%. The kinetics of bundling of MgF−actin was monitored by increase in light scattering, with both excitation and emission wavelengths adjusted to 450 nm. All fluorescence and light scattering measurements were carried out at 22 °C. […]
# [8] = system: CaATP-G-actin (skeletal muscle); conditions: ref [9]; cited from earlier work
# Experimental: The pK of histidine is around pH 6.5 depending on the environment of the residue in the protein structure. This means that its charge changes with pH in the neutral pH region. Histidine is positively charged at slightly acidic pH and neutral above pH 7.0. Since actin polymerization is dependent on the number of positive charges of the polymerizing agent, the effect of pH 6.5, 7.4 and 8.2 on the polymerization of G-actin by histatins was measured (Fig. 1d).
# F-actin bundles = conditions: ref [9]; cited from earlier work
# Text: Both DNase1 and cofilin are actin binding proteins. DNase1 depolymerizes F-actin filament by binding to the protomer at the filaments ends and forming a tight complex with the protomer by attachment to its DNase1 binding loop (D-loop). […] Cofilin disassembles actin bundles by severing the filaments through its effect on the structure of actin protomers [[19] ...
# CaATP-G-actin [9] = conditions: ref [6], cited from earlier work
# Text: Transglutaminase (TGase) catalyzes the formation of isopeptide bonds, which cross-links proximal glutamine and lysine residues in proteins. The TGase reaction produces both intramolecular cross-links in proteins and intermolecular cross-links between proteins and peptides.
# G-actin [10] = conditions: ref [6]; cited from earlier work
# TG-G-actin [11] = conditions: ref [6]; cited from earlier work
# Text: TGase catalyzes covalent cross-linking of glutamine and lysine residues in proteins. Since in the histatin-G-actin cross-linking reaction only actin contains glutamine residues, it follows that actin should be the glutamine donor in this case. […] Gln41 seems to be the preferred candidate for this role sinc ...
# actin = conditions: cited from earlier work
# Text: Actin is a negatively charged structural protein and the most abundant protein in the eukaryotic cells. Actin, released from dead cells, is also present in the saliva. Actin has important roles in cytoskeleton formation, cell division, motility, adhesion, signaling and more. Actin exists in either monomer globular (G) or polymer filament (F) form, which are interconvertible into each other.
# [12] = 4 μM G- or F-actin, 8 μM histatin-3 or 6 μM LL-37, 0.4 mg/ml TGase
compound,measurement,setting,value
CC(C)C[C@H](NC(=O)[C@H](Cc1ccc(O)cc1)NC(=O)[C@H](CC(N)=O)NC(=O)[C@H](CO)NC(=O)[C@H](CCCNC(=N)N)NC(=O)[C@H](Cc1ccc(O)cc1)NC(=O)CNC(=O)[C@H](CCCNC(=N)N)NC(=O)[C@H](Cc1c[nH]cn1)NC(=O)[C@H](CO)NC(=O)[C@H](Cc1c[nH]cn1)NC(=O)[C@H](Cc1c[nH]cn1)NC(=O)[C@H](CCCCN)NC(=O)[C@H](CCC(=O)O)NC(=O)[C@H](Cc1c[nH]cn1)NC(=O)[C@H](Cc1ccccc1)NC(=O)[C@H](CCCCN)NC(=O)[C@H](CCCNC(=N)N)NC(=O)[C@H](CCCCN)NC(=O)[C@H](Cc1ccc(O)cc1)NC(=O)CNC(=O)[C@H](Cc1c[nH]cn1)NC(=O)[C@H](Cc1c[nH]cn1)NC(=O)[C@H](CCCNC(=N)N)NC(=O)[C@H](CCCCN)NC(=O)[C@H](C)NC(=O)[C@H](Cc1c[nH]cn1)NC(=O)[C@H](CO)NC(=O)[C@@H](N)CC(=O)O)C(=O)N[C@@H](Cc1ccc(O)cc1)C(=O)N[C@@H](CC(=O)O)C(=O)N[C@@H](CC(N)=O)C(=O)O [histatin-3],EC50,MgF-actin [1],5 µM
Fl-LL-37: tetramethylrhodamine labeled LL-37,effect of phalloidin on extent of F-actin cross-linking,MgF-actin [2],reduces greatly
"Fl-histatin-3: tetramethylrhodamine labeled histatin-3 (DSHAKRHHGYKRKFHEKHHSHRGYRSNYLYDN; also: tetramethylrhodamine label, position not given here)",effect of phalloidin on extent of F-actin cross-linking,MgF-actin [2],reduces greatly
same,effect of NaCl on cross-linking to G-actin,G-actin [3],NaCl inhibited the cross-linking
same,cross-linked product with TGase pretreated vs untreated G-actin,TG-G-actin [4],slightly less actin Fl-histatin-3 cross-linked products formed with TGase pretreated than with untreated G-actin
same,cross-linking site in the D-loop of G-actin,TG-G-actin [4],Gln-49 is the main glutamine donor in the D-loop of actin
same,"cross-linking to subtilisin fragments (Asp1-Met47 N-terminal, Gly48-Phe375 C-terminal)",[5],both fragments can be cross-linked
same,cross-linking to Tyr69-Arg372 C-terminal tryptic fragment,[5],can be also cross-linked
Fl-histatin-5: FAM labeled histatin-5,effect of NaCl on cross-linking to G-actin,G-actin [3],NaCl inhibited the cross-linking
same,"inhibitory effect of cofilin on cross-linking, comparison of peptides","G-actin [3]; cofilin, TGase 5 min",less Fl-histatin-5 than with Fl-histatin-3
same,cross-linked product with TGase pretreated vs untreated G-actin,TG-G-actin [4],the same amount of cross-linked product formed
same,cross-linking site in the D-loop of G-actin,TG-G-actin [4],does not cross-link to Gln41 of G-actin
same,"cross-linking to subtilisin fragments (Asp1-Met47 N-terminal, Gly48-Phe375 C-terminal)",[5],cross-linked only to the C- but not to the N-terminal G-actin fragment
same,cross-linking to Tyr69-Arg372 C-terminal tryptic fragment,[5],can be also cross-linked
same,"quantity of cross-linked product with G-actin, comparison","CaATP-G-actin [6]; 4 μM CaATP-G-actin, 4–8 μM Fl-histatin, 0.3 mg/ml TGase",consistently greater than that of Fl-histatin-3
same,"extent of cross-linking to both G- and F-actin, comparison","CaATP-G-actin [6]; 4 μM G- and F-actin, 6 μM Fl-histatin, 0.3 mg/ml TGase",larger than that of Fl-histatin-3
LLGDFFRKSKEKIGKEFKRIVQRIKDFLRNLVPRTES [LL-37],effect of pH on kinetics of actin polymerization,[7],much less pH-dependent than the polymerization by histatins
same,effect of pH on extent of F-actin bundling,"MgF-actin [1]; 8 μM MgF-actin, 5 μM histatin-3, 12 μM histatin-5, 5 μM LL-37, pH 6.5, 7.3 and 8.2 (Fig. 2d), 3–16 μM histatins at pH 6.5 and 7.4 (Fig. S1)",contrary to the bundling by LL-37
same,extent of cross-link formation with F-actin vs G-actin,MgF-actin [2]; [12],significantly less than with G-actin
same,cross-linking to G- and F-actin by TGase,CaATP-G-actin [6]; [12],cross-linked to both G- and F-actin like LL-37
same,concentration at which G-actin is polymerized at neutral pH,[8],at about the same concentration as histatin-3
same,disassembly of polycation induced actin bundles by DNase1 and cofilin,F-actin bundles,DNase1 and cofilin disassemble LL-37 and lysozyme -induced actin bundles
same,cross-linking of LL-37 to actin by TGase,CaATP-G-actin [9]; [25],can be cross-linked to actin by TGase
same,binding site on actin,CaATP-G-actin [9],binds preferentially to the D-loop of actin
same,effect of 200 mM NaCl on extent of cross-linking by LL-37,G-actin [10],did not affect the extent of cross-linking
same,cross-linking site of LL-37 on actin,TG-G-actin [11],preferentially cross-linked to Gln-49
same,"polymerization and bundling of actin, LL-37",actin; ref [9],polymerize G-actin to F actin and bundle F-actin into actin bundles
lysozyme: positively charged protein that interacts with actin,"polymerization and bundling of actin, lysozyme",actin; ref [8],polymerize G-actin to F actin and bundle F-actin into actin bundles

# From paper PMC5340040 (BMC Biochemistry, 2017)
